Assay results published in US11116771B2, “G protein-coupled receptor (GPCR) modulation by imipridones” (Oncoceutics, Inc., priority 2016, dated 2021).
Values after ≈ are worked out from the molar mass of the structure shown. “Also recorded” adds a separate entry of the source. Read-outs that look alike come from different tables or passages of the source.

Experiments:
[1] = target: DRD2 alanine-scan mutation library (Homo sapiens, UniProt P14416, E95A)
[2] = target: DRD2 alanine-scan mutation library (Homo sapiens, UniProt P14416, I397A)
Sequence of DRD2 alanine-scan mutation library (Homo sapiens, UniProt P14416, I397A) (P14416 whole entry I397A): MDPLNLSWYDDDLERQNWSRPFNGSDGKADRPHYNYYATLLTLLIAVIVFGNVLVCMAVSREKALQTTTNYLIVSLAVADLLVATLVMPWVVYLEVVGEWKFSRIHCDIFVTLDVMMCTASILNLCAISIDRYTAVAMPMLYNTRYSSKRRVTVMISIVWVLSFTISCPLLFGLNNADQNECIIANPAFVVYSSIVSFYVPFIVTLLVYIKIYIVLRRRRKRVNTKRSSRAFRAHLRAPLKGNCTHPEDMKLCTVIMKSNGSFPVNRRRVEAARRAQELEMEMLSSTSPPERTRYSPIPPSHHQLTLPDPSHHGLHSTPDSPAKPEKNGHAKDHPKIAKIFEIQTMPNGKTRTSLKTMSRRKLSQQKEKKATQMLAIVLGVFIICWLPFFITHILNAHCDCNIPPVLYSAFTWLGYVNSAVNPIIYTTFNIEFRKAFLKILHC

[3] = target: DRD2 alanine-scan mutation library (Homo sapiens, UniProt P14416, A177S)
Sequence of DRD2 alanine-scan mutation library (Homo sapiens, UniProt P14416, A177S) (P14416 whole entry A177S): as the sequence (P14416 whole entry I397A) above, with A177S, A397I counted along it

[4] = target: DRD2 alanine-scan mutation library (Homo sapiens, UniProt P14416, L81A)
Sequence of DRD2 alanine-scan mutation library (Homo sapiens, UniProt P14416, L81A) (P14416 whole entry L81A): as the sequence (P14416 whole entry I397A) above, with L81A, A397I counted along it

[5] = target: DRD2 alanine-scan mutation library (Homo sapiens, UniProt P14416, V91A)
Sequence of DRD2 alanine-scan mutation library (Homo sapiens, UniProt P14416, V91A) (P14416 whole entry V91A): as the sequence (P14416 whole entry I397A) above, with V91A, A397I counted along it

[6] = target: DRD2 alanine-scan mutation library (Homo sapiens, UniProt P14416, V196A)
Sequence of DRD2 alanine-scan mutation library (Homo sapiens, UniProt P14416, V196A) (P14416 whole entry V196A): as the sequence (P14416 whole entry I397A) above, with V196A, A397I counted along it

[7] = target: DRD2 alanine-scan mutation library (Homo sapiens, UniProt P14416, Y192A)
Sequence of DRD2 alanine-scan mutation library (Homo sapiens, UniProt P14416, Y192A) (P14416 whole entry Y192A): as the sequence (P14416 whole entry I397A) above, with Y192A, A397I counted along it

[8] = target: DRD2 alanine-scan mutation library (Homo sapiens, UniProt P14416, T165A)
Sequence of DRD2 alanine-scan mutation library (Homo sapiens, UniProt P14416, T165A) (P14416 whole entry T165A): as the sequence (P14416 whole entry I397A) above, with T165A, A397I counted along it

[9] = system: Staphylococcus aureus ATCC 700699; assay: MIC by micro-broth dilution, S. aureus ATCC 700699; assay type: cell-based; conditions: Staphylococcus aureus
[10] = system: Staphylococcus aureus ATCC 33591; assay: MIC by micro-broth dilution, S. aureus ATCC 33591; assay type: cell-based
human DRD2 [11] = target: T1, human DRD2 (Homo sapiens, UniProt P14416)
T1 sequence (P14416 whole entry): as the sequence (P14416 whole entry I397A) above, with A397I counted along it

DRD4 = DRD4 (Homo sapiens, UniProt P21917); conditions: arrestin recruitment reporter assay
Sequence of DRD4 (P21917 whole entry): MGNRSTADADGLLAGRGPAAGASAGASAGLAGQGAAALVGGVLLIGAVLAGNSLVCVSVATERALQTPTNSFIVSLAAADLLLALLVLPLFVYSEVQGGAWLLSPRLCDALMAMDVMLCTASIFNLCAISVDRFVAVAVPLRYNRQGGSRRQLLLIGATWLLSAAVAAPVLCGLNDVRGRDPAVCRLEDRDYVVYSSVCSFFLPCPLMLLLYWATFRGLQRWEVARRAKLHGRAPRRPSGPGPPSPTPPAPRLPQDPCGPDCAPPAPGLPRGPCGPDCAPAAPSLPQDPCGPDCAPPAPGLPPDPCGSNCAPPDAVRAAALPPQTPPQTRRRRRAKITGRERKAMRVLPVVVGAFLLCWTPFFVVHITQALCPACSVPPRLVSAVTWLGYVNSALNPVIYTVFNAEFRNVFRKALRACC

[12] = system: nuclear hormone receptors; conditions: ONC201 2 or 20 μM (FIG. 5D)
human DRD2 [13] = target: T1, human DRD2; assay: cell-based; conditions: HEK-293T, read-out: inhibition of the DRD2 dopamine response
DRD5 = DRD5 (Homo sapiens, UniProt P21918); assay: β-arrestin recruitment GPCR reporter assay, DRD5; assay type: cell-based
Sequence of DRD5 (P21918 whole entry): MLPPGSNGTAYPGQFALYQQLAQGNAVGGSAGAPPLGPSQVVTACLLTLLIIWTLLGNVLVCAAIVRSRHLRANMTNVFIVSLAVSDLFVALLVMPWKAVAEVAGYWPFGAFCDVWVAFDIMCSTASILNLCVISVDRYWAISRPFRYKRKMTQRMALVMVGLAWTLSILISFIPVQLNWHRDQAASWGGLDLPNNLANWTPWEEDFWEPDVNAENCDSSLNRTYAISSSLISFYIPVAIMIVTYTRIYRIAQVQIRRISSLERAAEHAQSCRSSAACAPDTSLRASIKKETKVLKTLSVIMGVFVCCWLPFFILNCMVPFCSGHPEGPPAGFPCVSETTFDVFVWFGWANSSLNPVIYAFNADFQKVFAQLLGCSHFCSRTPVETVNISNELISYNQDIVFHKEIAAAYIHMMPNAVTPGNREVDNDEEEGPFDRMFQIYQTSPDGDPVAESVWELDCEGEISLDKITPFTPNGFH

kinome = conditions: in vitro kinase enzymatic activity, ONC201 1 μM (FIG. 5E)
MV411 AML xenograft = MV411 AML xenograft model; assay type: in vivo, athymic nude mice; conditions: oral weekly administration; ONC212 50 mg/kg, ONC201 at similar doses (FIG. 30A)
MV411 AML cells = assay: Cell viability, MV411 AML cells; assay type: cell-based
HCT116, MDA-MB-231, U87 [14] = conditions: about 1-5 mg/mL of ONC201, 72 hours
HCT116, MDA-MB-231, U87 [15] = assay: cells; conditions: Homo sapiens, 72 h, read-out: viability of tumor cells
DRD2L = DRD2L (Homo sapiens, UniProt P14416); assay: Gaddum/Schild analysis of arrestin recruitment to DRD2L; assay type: cell-based; conditions: arrestin recruitment / cAMP reporters (FIGS. 5B, 5C, 5F)
Sequence of DRD2L (P14416 whole entry): as the sequence (P14416 whole entry I397A) above, with A397I counted along it

DRD1 = DRD1 (Homo sapiens, UniProt P21728); conditions: arrestin recruitment reporter assay
Sequence of DRD1 (P21728 whole entry): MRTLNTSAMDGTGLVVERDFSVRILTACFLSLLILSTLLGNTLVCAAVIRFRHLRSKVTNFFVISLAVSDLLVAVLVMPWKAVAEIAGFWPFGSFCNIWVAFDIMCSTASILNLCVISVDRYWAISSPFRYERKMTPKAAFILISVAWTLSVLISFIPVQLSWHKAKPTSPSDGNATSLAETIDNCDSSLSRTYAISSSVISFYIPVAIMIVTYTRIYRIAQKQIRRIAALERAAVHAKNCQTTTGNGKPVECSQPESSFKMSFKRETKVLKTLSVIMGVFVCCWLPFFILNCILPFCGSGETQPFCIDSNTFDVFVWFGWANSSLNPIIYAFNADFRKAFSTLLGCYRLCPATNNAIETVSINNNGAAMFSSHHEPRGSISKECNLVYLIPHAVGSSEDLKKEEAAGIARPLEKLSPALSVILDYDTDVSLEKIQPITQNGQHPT

[16] = Rat non-GLP oral single dose study; assay type: in vivo; conditions: in vivo; rat non-GLP oral single dose study; read-out: NOAEL
[17] = system: DRD2 (short and long isoforms); assay: β-arrestin recruitment GPCR reporter assay, DRD2; assay type: cell-based
control GPCR = conditions: 100 μM ONC201
prolactin = conditions: advanced solid tumors, ELISA in peripheral blood after ONC201
[18] = system: Staphylococcus aureus ATCC 29213; assay: MIC by micro-broth dilution, S. aureus ATCC 29213; assay type: cell-based
in vitro = conditions: human, Cell viability of normal cells, about 1-5 mg/mL of ONC201, 72 hours
GPR91 = GPR91 (Homo sapiens, UniProt Q9BXA5); assay: β-arrestin recruitment GPCR reporter assay, GPR91; assay type: cell-based
Sequence of GPR91 (Q9BXA5 whole entry): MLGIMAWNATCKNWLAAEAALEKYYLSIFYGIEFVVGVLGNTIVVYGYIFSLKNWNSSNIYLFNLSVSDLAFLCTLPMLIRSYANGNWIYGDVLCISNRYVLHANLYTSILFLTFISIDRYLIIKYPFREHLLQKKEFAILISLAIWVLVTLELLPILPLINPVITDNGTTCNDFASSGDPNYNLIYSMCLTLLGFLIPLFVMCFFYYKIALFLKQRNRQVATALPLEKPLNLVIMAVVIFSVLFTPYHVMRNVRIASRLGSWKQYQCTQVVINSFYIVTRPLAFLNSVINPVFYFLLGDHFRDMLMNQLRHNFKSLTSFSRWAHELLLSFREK

[19] = Mouse tolerability (non-GLP oral single dose / MTD study); assay type: in vivo; conditions: in vivo; mouse; non-GLP oral single dose study / MTD study
Method: ONC212 25 mg/kg represents NOAEL in mouse and rat non-GLP oral single dose studies which is also the efficacious dose in mouse xenograft studies. […].
Dual targeting of DRD2/3 and GPR132/91 represents a novel strategy for anti-cancer efficacy without toxicity. […] […]. […] […].

GPR132 = target: T2, GPR132 (Homo sapiens, UniProt Q9UNW8); assay: β-arrestin recruitment GPCR reporter assay, GPR132; assay type: cell-based
T2 sequence (Q9UNW8 1-380): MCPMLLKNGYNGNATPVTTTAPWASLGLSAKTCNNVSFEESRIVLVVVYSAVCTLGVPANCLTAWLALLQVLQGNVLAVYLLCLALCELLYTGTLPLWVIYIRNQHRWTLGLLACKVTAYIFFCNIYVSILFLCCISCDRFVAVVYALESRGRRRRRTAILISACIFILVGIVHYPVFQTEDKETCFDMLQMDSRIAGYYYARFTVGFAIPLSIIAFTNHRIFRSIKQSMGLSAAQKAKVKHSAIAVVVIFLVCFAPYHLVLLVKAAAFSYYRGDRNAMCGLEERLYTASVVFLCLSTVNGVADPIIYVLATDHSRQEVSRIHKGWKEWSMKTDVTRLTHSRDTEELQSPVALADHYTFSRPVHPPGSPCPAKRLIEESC

normal cells = assay: In vitro toxicity to normal cells; assay type: cell-based; conditions: FIG. 33
human cancer cells = assay: Viability of human cancer cells at 72 hours post-treatment; assay type: cell-based; conditions: relative to the potency of ONC201; viability of human cancer cells at 72 hours post-treatment
DRD3 = DRD3 (Homo sapiens, UniProt P35462); assay: β-arrestin recruitment GPCR reporter assay, DRD3; assay type: cell-based
Sequence of DRD3 (P35462 whole entry): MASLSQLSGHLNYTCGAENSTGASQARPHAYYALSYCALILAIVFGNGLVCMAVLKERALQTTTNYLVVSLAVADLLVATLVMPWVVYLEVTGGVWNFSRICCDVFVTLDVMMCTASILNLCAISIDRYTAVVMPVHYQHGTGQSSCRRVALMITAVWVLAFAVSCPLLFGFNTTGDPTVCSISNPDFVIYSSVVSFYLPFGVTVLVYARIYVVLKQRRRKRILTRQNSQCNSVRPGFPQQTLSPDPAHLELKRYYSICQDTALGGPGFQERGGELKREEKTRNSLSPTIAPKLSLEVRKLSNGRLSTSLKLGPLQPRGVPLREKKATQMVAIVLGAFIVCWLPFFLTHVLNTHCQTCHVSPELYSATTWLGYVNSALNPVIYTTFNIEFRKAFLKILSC

GPCRs = assay: GPCR profiling by arrestin recruitment reporter assay (panel); assay type: cell-based; conditions: 10 μM
CXCR7 = CXCR7 (Homo sapiens, UniProt P25106); assay: β-arrestin recruitment GPCR reporter assay, CXCR7; assay type: cell-based
Sequence of CXCR7 (P25106 whole entry): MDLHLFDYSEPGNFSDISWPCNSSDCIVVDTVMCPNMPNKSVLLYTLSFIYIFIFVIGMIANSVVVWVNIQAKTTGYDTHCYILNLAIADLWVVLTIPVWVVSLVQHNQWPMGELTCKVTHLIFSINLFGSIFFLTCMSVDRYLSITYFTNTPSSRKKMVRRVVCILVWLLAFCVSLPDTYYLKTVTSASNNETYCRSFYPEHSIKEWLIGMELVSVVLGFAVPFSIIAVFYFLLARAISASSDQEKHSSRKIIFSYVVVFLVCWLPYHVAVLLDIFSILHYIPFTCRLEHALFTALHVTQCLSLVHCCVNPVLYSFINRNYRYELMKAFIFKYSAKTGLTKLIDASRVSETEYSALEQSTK

Sequence of DRD2 alanine-scan mutation library (Homo sapiens, UniProt P14416, E95A) (P14416 whole entry E95A): as the sequence (P14416 whole entry I397A) above, with E95A, A397I counted along it

Cc1ccccc1CN1C(=O)C2=C(CCN(Cc3ccccc3)C2)N2CCN=C12 [ONC201, 7-benzyl-4-(2-methylbenzyl)-1,2,6,7,8,9-hexahydroimidazo [1,2-a]pyrido [3,4-e]pyrimidin-5(1H)-one]
Calcium Flux as a % of flux with WT DRD2 (100), ONC201 100 μM [1]: 97%
Calcium Flux as a % of flux with WT DRD2 (100), ONC201 250 μM [1]: 39%
Calcium Flux as a % of flux with WT DRD2 (100), ONC201 100 μM [2]: 122%
Calcium Flux as a % of flux with WT DRD2 (100), ONC201 250 μM [2]: 89%
Calcium Flux as a % of flux with WT DRD2 (100), ONC201 100 μM [3]: 77%
Calcium Flux as a % of flux with WT DRD2 (100), ONC201 250 μM [3]: 26%
Calcium Flux as a % of flux with WT DRD2 (100), ONC201 100 μM [4]: 63%
Calcium Flux as a % of flux with WT DRD2 (100), ONC201 250 μM [4]: 20%
Calcium Flux as a % of flux with WT DRD2 (100), ONC201 100 μM [5]: 94%
Calcium Flux as a % of flux with WT DRD2 (100), ONC201 250 μM [5]: 58%
Calcium Flux as a % of flux with WT DRD2 (100), ONC201 100 μM [6]: 79%
Calcium Flux as a % of flux with WT DRD2 (100), ONC201 250 μM [6]: 22%
Calcium Flux as a % of flux with WT DRD2 (100), ONC201 100 μM [7]: 85%
Calcium Flux as a % of flux with WT DRD2 (100), ONC201 250 μM [7]: 11%
Calcium Flux as a % of flux with WT DRD2 (100), ONC201 100 μM [8]: 67%
Calcium Flux as a % of flux with WT DRD2 (100), ONC201 250 μM [8]: 28%
MIC ([9]; ATCC700699): > 100 µg/mL
MIC99 ([9]; ATCC700699, 48 h): > 100 µg/mL
MIC ([9]; ATCC700699, 48 h, read-out: MIC95): > 100 µg/mL
MIC ([9]; ATCC700699, 48 h, read-out: MIC, Visual): > 100 µg/mL
MIC ([10]; Staphylococcus aureus, ATCC33591): > 100 µg/mL
MIC99 ([10]; Staphylococcus aureus, ATCC33591, 24 h): > 100 µg/mL
MIC ([10]; Staphylococcus aureus, ATCC33591, 24 h, read-out: MIC95): > 100 µg/mL
MIC ([10]; Staphylococcus aureus, ATCC33591, 24 h, read-out: MIC, Visual): > 100 µg/mL
inhibition of DRD2 dopamine-induced calcium flux (human DRD2 [11]): completely inhibited; also recorded: complete inhibition
GPCR activity, DRD4 (DRD4): weaker potency
interaction with nuclear hormone receptors [12]: no significant interactions
inhibition at 100 µM (human DRD2 [13]): > 95%
GPCR activity, DRD5 (DRD5): no antagonism
interaction with the kinome (kinome): no significant interactions
leukemia xenograft tumor growth (MV411 AML xenograft): not efficacious
exposure required for efficacy (MV411 AML cells): 24 to 48 h
viability of tumor cells (HCT116, MDA-MB-231, U87 [14]): ≤ 50%
viability at 5000 µg/mL (HCT116, MDA-MB-231, U87 [15]): < 25%
antagonism of DRD2L (DRD2L): direct, competitive antagonism
GPCR activity, DRD1 (DRD1): no antagonism
NOAEL [16]: 225 mg/kg
GPCR activity, DRD2 [17]: selectively antagonizes; also recorded: antagonized
effect on calcium flux of control GPCR (control GPCR): no effect
patients exhibiting induction of prolactin (prolactin): 10/11
MIC ([18]; Staphylococcus aureus, ATCC29213): > 100 µg/mL
MIC99 ([18]; Staphylococcus aureus, ATCC29213, 24 h): > 100 µg/mL
MIC ([18]; Staphylococcus aureus, ATCC29213, 24 h, read-out: MIC95): > 100 µg/mL
MIC ([18]; Staphylococcus aureus, ATCC29213, 24 h, read-out: MIC, Visual): > 100 µg/mL
viability at 72 h (in vitro): ≥ 75%

O=C1C2=C(CCN(Cc3ccccc3)C2)N2CCN=C2N1Cc1ccc(F)c(F)c1 [ONC213]
GPCR activity, GPR91 (GPR91): GPR132/91 agonist
MIC90 ([9]; ATCC700699, ATCC 700699 (48 hours), read-out: MIC90): 6.25 µg/mL (≈ 15.3 µM)
MIC ([9]; ATCC700699, ATCC 700699 (48 hours), read-out: MIC95): 12.5 µg/mL (≈ 30.6 µM)
MIC99 ([9]; ATCC700699, ATCC 700699 (48 hours), read-out: MIC99): 12.5 µg/mL (≈ 30.6 µM)
MIC ([9]; ATCC700699, ATCC 700699 (48 hours), read-out: MIC, Visual): 12.5 µg/mL (≈ 30.6 µM)
MIC ([10]; ATCC33591, Staphylococcus aureus (ATCC 33591), methicillin resistant, read-out: MIC): 3.13 µg/mL (≈ 7.66 µM)
MIC90 ([10]; Staphylococcus aureus, ATCC33591, ATCC 33591, 24 hours, read-out: MIC90): 3.13 µg/mL (≈ 7.66 µM)
MIC ([10]; Staphylococcus aureus, ATCC33591, ATCC 33591, 24 hours, read-out: MIC95): 6.25 µg/mL (≈ 15.3 µM)
MIC99 ([10]; Staphylococcus aureus, ATCC33591, ATCC 33591, 24 hours, read-out: MIC99): 100 µg/mL (≈ 245 µM)
MIC ([10]; Staphylococcus aureus, ATCC33591, ATCC 33591, 24 hours, read-out: MIC, Visual): 3.12 µg/mL (≈ 7.65 µM)
NOAEL [19]: 75 mg/kg
GPCR activity, GPR132 (GPR132): less than ONC212; also recorded: GPR132/91 agonist
in vitro toxicity to normal cells (normal cells): reduced compared to ONC212
GPCR activity, DRD2 [17]: DRD2/3 inhibitor; also recorded: more than ONC201 but less than ONC206
MIC ([18]; ATCC29213, wild type Staphylococcus aureus (ATCC 29213), read-out: MIC): 25 µg/mL (≈ 61.2 µM)
MIC90 ([18]; Staphylococcus aureus, ATCC29213, ATCC 29213, 24 hours, read-out: MIC90): 12.5 µg/mL (≈ 30.6 µM)
MIC ([18]; Staphylococcus aureus, ATCC29213, ATCC 29213, 24 hours, read-out: MIC95): 12.5 µg/mL (≈ 30.6 µM)
MIC99 ([18]; Staphylococcus aureus, ATCC29213, ATCC 29213, 24 hours, read-out: MIC99): 25 µg/mL (≈ 61.2 µM)
MIC ([18]; Staphylococcus aureus, ATCC29213, ATCC 29213, 24 hours, read-out: MIC, Visual): 25 µg/mL (≈ 61.2 µM)
Relative Potency* (human cancer cells): A (A Indicates a potency increase of >2-fold of ONC201)
GPCR activity, DRD3 (DRD3): DRD2/3 inhibitor; also recorded: more than ONC201 but less than ONC206

O=C1C2=C(CCN(Cc3ccc(Cl)c(Cl)c3)C2)N2CCN=C2N1Cc1ccc(C(F)(F)F)cc1 [ONC234]
GPCR profile / selectivity (GPCRs): broad spectrum and potent GPCR targeting small molecule
GPCR activity, DRD5 (DRD5; arrestin recruitment reporter assay): antagonist activity
GPCR activity, DRD2 [17]: antagonist activity
GPCR activity, CXCR7 (CXCR7): CXCR7 agonist activity
Relative Potency* (human cancer cells): A (A Indicates a potency increase of >2-fold of ONC201)
